Assay [1] concerns the target Estrogen receptor beta (Homo sapiens, UniProt Q92731).
Description: Binding potency for human ER beta
The target in assay [2] is T1, Estrogen receptor (Homo sapiens, UniProt P03372).
T1 sequence (P03372 whole entry): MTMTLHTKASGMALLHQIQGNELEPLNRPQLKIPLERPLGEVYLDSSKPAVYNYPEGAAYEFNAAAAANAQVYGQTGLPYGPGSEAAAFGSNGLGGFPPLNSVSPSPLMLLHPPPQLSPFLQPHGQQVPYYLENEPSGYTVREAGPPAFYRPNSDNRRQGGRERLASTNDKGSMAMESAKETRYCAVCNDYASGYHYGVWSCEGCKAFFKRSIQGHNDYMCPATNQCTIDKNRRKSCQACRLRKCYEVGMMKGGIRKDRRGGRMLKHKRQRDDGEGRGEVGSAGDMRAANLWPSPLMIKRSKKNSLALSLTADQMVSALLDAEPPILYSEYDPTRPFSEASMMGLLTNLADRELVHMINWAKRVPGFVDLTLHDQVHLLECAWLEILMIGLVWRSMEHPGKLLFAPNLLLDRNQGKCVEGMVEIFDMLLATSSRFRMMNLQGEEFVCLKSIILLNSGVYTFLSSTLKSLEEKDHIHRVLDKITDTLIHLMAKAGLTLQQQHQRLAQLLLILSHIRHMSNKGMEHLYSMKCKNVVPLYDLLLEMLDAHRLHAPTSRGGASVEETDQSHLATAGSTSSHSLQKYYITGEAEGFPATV
Description: Binding potency for human ER alpha

The test system of assay [3] is MCF7. The experiment in a line: cells. Particulars: Homo sapiens.

Here are results for 13 compounds from ChEMBL document CHEMBL1137846, “Estrogen receptor ligands. Part 7: Dihydrobenzoxathiin SERAMs with bicyclic amine side chains” (Bioorg Med Chem Lett, 2004).

Estrogen receptor beta, sequence (Q92731 whole entry): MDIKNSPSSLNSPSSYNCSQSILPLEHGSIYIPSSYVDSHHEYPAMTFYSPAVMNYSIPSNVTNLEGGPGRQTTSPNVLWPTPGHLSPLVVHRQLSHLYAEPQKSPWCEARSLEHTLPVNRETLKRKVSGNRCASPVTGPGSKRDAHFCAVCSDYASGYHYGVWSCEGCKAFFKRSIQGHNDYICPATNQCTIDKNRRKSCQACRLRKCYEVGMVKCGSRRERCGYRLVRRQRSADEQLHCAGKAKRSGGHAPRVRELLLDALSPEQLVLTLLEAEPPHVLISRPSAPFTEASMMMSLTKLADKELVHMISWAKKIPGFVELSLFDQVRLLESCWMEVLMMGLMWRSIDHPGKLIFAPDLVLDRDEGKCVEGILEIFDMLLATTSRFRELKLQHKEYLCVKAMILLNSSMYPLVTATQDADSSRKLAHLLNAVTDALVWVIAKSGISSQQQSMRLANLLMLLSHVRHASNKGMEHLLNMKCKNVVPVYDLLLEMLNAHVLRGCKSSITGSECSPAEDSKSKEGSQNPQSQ

One may read the IC50 as the concentration at which inhibition is half-maximal. Low values mean higher potency, high ones lower potency. As to `Oc1ccc([C@H]2Sc3cc(O)ccc3O[C@H]2c2ccc(OCCN3CC4CCC4C3)cc2)cc1` (some centres not stated), the values for the IC50 in assay [1], in assay [2] and in assay [3] were 85 nM, 0.8 nM and 2.5 nM, respectively.
As for `Oc1ccc([C@H]2Sc3cc(O)ccc3O[C@H]2c2ccc(OCCN3CCC4(CCCC4)CC3)cc2)cc1`, the IC50 in assay [1] amounted to 39 nM; in assay [2], 1.2 nM; in assay [3] it was 29.8 nM.
Take `Oc1ccc([C@H]2Sc3cc(O)ccc3O[C@H]2c2ccc(OCCN3CC[C@@H]4CC43)cc2)cc1` (single isomer, unassigned): the results for the IC50 in assay [1] and in assay [3] were 56 nM and 0.5 nM, respectively.
Consider `Oc1ccc([C@H]2Sc3cc(O)ccc3O[C@H]2c2ccc(OCCN3C4CCCC3CC4)cc2)cc1`, for which the IC50 in assay [1] is 51 nM; in assay [2], 0.6 nM; in assay [3] it was 2.2 nM.
For the compound `Oc1ccc([C@H]2Sc3cc(O)ccc3O[C@H]2c2ccc(OCCN3CC4CCC3CC4)cc2)cc1`, the IC50 in assay [1] was 52 nM; in assay [2], 1.3 nM; in assay [3], 1.6 nM.
For the compound `Oc1ccc([C@H]2Sc3cc(O)ccc3O[C@H]2c2ccc(OCCN3CC4CC3CO4)cc2)cc1` (some centres not stated), the IC50 in assay [1] turned out to be 73 nM; in assay [2] it was 0.7 nM; in assay [3], 3.3 nM.
Regarding `Oc1ccc([C@H]2Sc3cc(O)ccc3O[C@H]2c2ccc(OCCN3CC4CC5CC(C4)CC3C5)cc2)cc1`, the IC50 in assay [1] stood at 40 nM; in assay [2], 0.6 nM; in assay [3], 5.8 nM.
For `Oc1ccc([C@H]2Sc3cc(O)ccc3O[C@H]2c2ccc(OCCN3C4CCCC3CCC4)cc2)cc1`, the IC50 came to 47 nM in assay [1], 0.6 nM in assay [2] and 3 nM in assay [3].
Consider `Oc1ccc([C@H]2Sc3cc(O)ccc3O[C@H]2c2ccc(OCCN3C[C@H]4CCCC[C@H]4C3)cc2)cc1`, for which the IC50 came to 33 nM in assay [1], 1 nM in assay [2] and 7.7 nM in assay [3].
For `Oc1ccc([C@H]2Sc3cc(O)ccc3O[C@H]2c2ccc(OCCN3C[C@H]4CCC[C@H]4C3)cc2)cc1`, the results for the IC50 in assay [1], in assay [2] and in assay [3] were 18 nM, 0.3 nM and 1.3 nM, respectively.
Regarding `Oc1ccc([C@H]2Sc3cc(O)ccc3O[C@H]2c2ccc(OCCN3C4CCC3CC4)cc2)cc1`, the 50% inhibitory concentration (IC50) is 118 nM in assay [1], 0.9 nM in assay [2] and 3.6 nM in assay [3].
Consider `Oc1ccc([C@H]2Sc3cc(O)ccc3O[C@H]2c2ccc(OCCN3CC[C@H]4C[C@H]43)cc2)cc1`, for which the IC50 amounted to 33 nM in assay [1] and 0.4 nM in assay [3].
Take `Oc1ccc([C@H]2Sc3cc(O)ccc3O[C@H]2c2ccc(OCCN3CC4(CCC4)C3)cc2)cc1`: the IC50 was found to be 26 nM in assay [1], 0.4 nM in assay [2] and 0.3 nM in assay [3].
